Reference: patent US20180303772A1, “5-HYDROXYTRYPTAMINE 1B RECEPTOR-STIMULATING AGENT FOR THE TREATMENT OF MYOCARDIAL INFARCTION” (INSTITUT PASTEUR, priority 2015, published 2018)
Structures can show the parent of a compound that is named as a salt.

Assays:
5-HT1BR = 5-HT1BR (Mus musculus, UniProt P28334)
Protocol: Counting was done based on the endogenous fluorescence. […] (d) Number of vessels (counted with endogenous GFP from Flk1^GFP/+ mouse) in fluoxetine, fluoxetine and 5HT1B inhibitor, inhibitor alone per mm^2 in the heart.
Statistical analysis was performed using GraphPad Prism software using appropriate tests (non-parametric Mann-Whitney unless specified) and a minimum of 95% confidence interval for significance; p values indicated on figures are <0.05 (*), <0.01 (**), and <0.001 (***). Figures display average values of all animals tested ±SD

Flk1^GFP/+ mice = test: Vessel number in the heart of Flk1GFP/+ mice after 6 weeks of fluoxetine; assay type: in vivo; conditions: fluoxetine 18 mg/Kg
Description: Counting was done based on the endogenous fluorescence. (b-c) Cryo-sections of the heart of Flk1^GFP/+ mice treated with placebo (b) or fluoxetine (c). Endogenous GFP levels are shown. (d) Number of vessels (counted with endogenous GFP from Flk1^GFP/+ mouse) in fluoxetine, fluoxetine and 5HT1B inhibitor, inhibitor alone per mm^2 in the heart. (e-f) Haematoxylin and eosin staining of heart of the placebo and the fluoxetine treated mice. (g) Quantification of the infarcted area with or without fluoxetine treatment.
(§1) Hearts were carefully dissected and snap frozen in liquid-nitrogen-cooled OCT for a few minutes and stored at −80° C. prior to cryosectioning (10 μm sections). Sections were kept at room temperature overnight before staining. Sections were then rehydrated in PBS for 10 minutes and fixed in 10% formalin for 3 minutes. The sections were then routinely stained with haematoxylin and eosin (HE) using an automated stain machine or manually with red sirius.
Statistical analysis was performed using GraphPad Prism software using appropriate tests (non-parametric Mann-Whitney unless specified) and a minimum of 95% confidence interval for significance; p values indicated on figures are <0.05 (*), <0.01 (**), and <0.001 (***). Figures display average values of all animals tested ±SD […]

C57Bl/6 mice = test: Ischemia reperfusion (myocardial infarct), infarcted area by histology; assay type: in vivo; conditions: C57Bl/6 mice treated with fluoxetine for 6 weeks
Protocol: (e-f) Haematoxylin and eosin staining of heart of the placebo and the fluoxetine treated mice. (g) Quantification of the infarcted area with or without fluoxetine treatment.
Animals were anesthetized with ketamine (Imalgene1000 100 mg/Kg Merial) and Xylazine (Rompun2% 20 mg/Kg Bayer) prior to injury. Animals were hydrated and treated with analgesic (Buprenorphin Axience 0.3 mg/kg) twice a day for 4 days following injury.
as §1
For image analysis (fibrosis quantification) ImageJ 1.46r software was using between different photos randomly taken per section and 3 sections minimum per experimental group. The pictures were converted in a binary image and the pixel values then collected.
Statistical analysis was performed using GraphPad Prism software using appropriate tests (non-parametric Mann-Whitney unless specified) and a minimum of 95% confidence interval for significance; p values indicated on figures are <0.05 (*), <0.01 (**), and <0.001 (***). […]

Chain of 5-HT1BR (P28334 whole entry): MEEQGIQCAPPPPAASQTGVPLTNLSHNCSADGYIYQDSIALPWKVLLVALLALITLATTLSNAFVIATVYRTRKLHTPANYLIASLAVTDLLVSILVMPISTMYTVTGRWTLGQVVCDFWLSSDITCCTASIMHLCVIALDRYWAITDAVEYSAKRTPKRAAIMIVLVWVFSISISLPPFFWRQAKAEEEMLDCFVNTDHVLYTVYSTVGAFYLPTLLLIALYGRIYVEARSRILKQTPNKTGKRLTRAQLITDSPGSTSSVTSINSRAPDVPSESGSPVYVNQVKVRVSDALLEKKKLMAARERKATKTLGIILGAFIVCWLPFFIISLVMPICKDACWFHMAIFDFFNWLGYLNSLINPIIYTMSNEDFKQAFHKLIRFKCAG

Structure (SMILES)	effect of 5-HT1BR inhibition on the fluoxetine-induced increase in vessel number in the heart (5-HT1BR; GR127935 hydrochloride in osmotic pump together with fluoxetine treatment)	vessel number in the heart (Flk1^GFP/+ mice; 6 weeks IP, placebo 932.9±186, p=0.017) [vessels]	vessel number in the heart (Flk1^GFP/+ mice; 6 weeks PO, placebo 932.9±186, p=0.03) [vessels]	infarcted area at the histological level (C57Bl/6 mice; 3 days after infarct, placebo 53126±11849, p=0.02) [pixels]	infarcted area, first observation after ischemia reperfusion (C57Bl/6 mice; control 5%)	vessel number in the heart (5-HT1BR; fluoxetine and PBS treated mice) [vessels per mm^2]
COc1ccc(NC(=O)c2ccc(-c3ccc(-c4noc(C)n4)cc3C)cc2)cc1N1CCN(C)CC1 [GR127935 hydrochloride]	no increase in the vessel number in the heart was observed	–	–	–	–	–
CNCCC(Oc1ccc(C(F)(F)F)cc1)c1ccccc1 (stereo not drawn) [fluoxetine]	–	1634±608	1474±375	36690±7884	25 % of total area	1697±702
